Here are results for 15 compounds from patent publication US4202891A, “15-Oxygenated sterol compounds and the use of such compounds to inhibit the biosynthesis of sterols” (priority 1977, dated 1980).

Assay [1] relates to sterol biosynthesis in L cells. In words: Inhibition of sterol synthesis from [1-14C]acetate in L cell cultures. It is filed as cell-based. The note with it: Mus musculus. As to the method: (§1) The effect of various 15-oxygenated sterols on sterol biosynthesis in L cells and in primary cultures of mouse liver cells was tested essentially under conditions described in detail previously [A. A. Kandutsch and H. W. Chen, J. Biol. Chem., Vol. 248, pp. 8408-8417 (1973) and A. A. Kandutsch and H. W. Chen, J. Biol. Chem., Vol. 249, pp. 6057-6061 (1974`)].
(§2) The primary liver cell cultures were prepared from 16-day-old (C57BL/6J fetuses and grown in chemically defined medium (serum-free) as described in the above cited publications. The L cells, a subline of NCTC clone 929 mouse fibroblasts, were grown in chemically defined medium (serum-free) as described in the publications. These L cells are transformed fibroblasts which are regarded as malignant since they will grow as tumors if injected into the mouse strain from which they were initially obtained.
(§3) The preparation of steroid-containing media, procedures for assays of the conversion of [1-^14 C]acetate into digitonin-precipitable sterols, fatty acids, and CO2 and methods for the measurement of DNA, protein, and HMG-CoA reductase were as described in the published articles. L cell cultures were preincubated with the 15-oxygenated sterols and their derivatives for 4 hours, then [1-^14 C]acetate was added at a concentration of 4 μmoles per ml (4 μCi per ml); or the L cell cultures were incubated for 5 hours with the 15-oxygenated sterols before they were harvested for determination of microsomal HMG-CoA reductase activity.
(§4) The test compounds were tested over a range of at least 4 concentrations and the assay was repeated until the concentration of test compound required to produce 50% inhibition was located on the steeply declining portion of an activity vs. concentration plot. To diminish any possible effects of generalized differences in cellular metabolism, the rates of sterol synthesis from [1-^14 C]acetate were calculated as the ratio of [^14 C]sterols to [^14 C]fatty acids as described in the two cited articles by Kandutsch and Chen.

For assay [2], the system named is sterol biosynthesis in primary cultures of mouse liver cells. In words: Inhibition of sterol synthesis from [1-14C]acetate in primary cultures of liver cells. It is filed as cell-based. How it is done: as §1, §2, §3
(§5) Conditions for incubating the 15-oxygenated sterols or their derivatives with liver cell cultures were similar to those described for L cell cultures except that the cultures were incubated with the test compounds for 12 hours before labeled acetate was added or before they were harvested for enzyme assay.
as §4

Assay [3] has as its system HMG-CoA reductase. In words: Reduction of the activity of HMG-CoA reductase in L cell cultures. It is filed as cell-based, mouse. The note with it: read-out: Concentrations Required for 50% Reduction of the Activity of HMG-CoA Reductase. How it is done: as §2, §3
(§6) A number of the 15-oxygenated sterols have also been tested with respect to their effects on the activity and/or levels of the enzyme HMG-CoA reductase (3-hydroxy-3-methylglutaryl coenzyme A reductase) in the L cells and in the liver cells. As noted previously, this enzyme catalyzes the reduction of 3-hydroxy-3-methylglutaryl coenzyme A to yield mevalonic acid, an essential intermediate in the biosynthesis of sterols and of a number of other essential compounds in cells.
(§7) Using the technique described by Kandutsch and Chen in the article cited in the previous example, the concentrations of various 15-oxygenated sterols required to reduce the levels of activity of HMG-CoA reductase by 50% was determined in the cells of the L cells in culture and of the primary cultures of liver cells.

Assay [4] has as its system HMG-CoA reductase. The assay is described as follows: Reduction of the activity of HMG-CoA reductase in primary cultures of liver cells. It is filed as cell-based, mouse. The note with it: read-out: Concentrations Required for 50% Reduction of the Activity of HMG-CoA Reductase. As to the method:
as §2, §3, §5, §6, §7

The subject of assay [5] is serum cholesterol. In words: Effect on serum cholesterol levels in rats, daily subcutaneous injection (Examples 41, 42). It is filed as in vivo, rat (male, Sprague-Dawley). The note with it: Example 42; for Serum Cholesterol (Mean ± S.E.M.): 5 mg s.c. once a day in triolein. How it is done:
Male rats of the Sprague-Dawley strain were fed Purina rat chow ad libidum. The rats were maintained on a light (7 A.M.-6 P.M.) -dark (6 P.M.-7 A.M.) cycle throughout the study and for a period of at least 4 days prior to the initiation of the study.
3β-Hexadecanoyloxy-5α-cholest-8(14)-en-15-one (5 mg; dissolved in 0.25 ml of triolein), hereafter referred to as the "palmitate ester", or 3β-hemisuccinoyloxy-5α-cholest-8(14)-en-15-one (5 mg; suspended in 0.25 ml of triolein through the use of a tight-fitting all-glass homogenizer), hereafter referred to as the "hemisuccinate ester", were administered subcutaneously once a day at about 12 P.M. to each of eight and six rats, respectively. Control animals (8) received daily injections of triolein (0.25 ml).
Blood samples were taken from the rats periodically and the serum cholesterol concentrations measured, in duplicate, by the method of Abell et al., J. Biol. Chem., Vol. 195, pp. 357-366 ([…]).
Following generally the procedure described in Example 41, 3β-Ethoxy-14α-ethyl-5α-cholest-7-en-15-one (5 mg) in triolein (0.25 ml) was administered subcutaneously once a day to each of eight rats. Control animals (8) received daily injections of triolein (0.25 ml).
Similarly, 5α-cholest-8(14)-en-3β-ol-15-one (2mg) in (0.2 ml) olive oil or 5.0 mg in 0.5 ml of olive oil) was administered subcutaneously once a day to each of a group of rats. The 2 mg dose was administered to 12 rats, while a like number of rats received daily injections of 0.2 ml olive oil. 5 mg doses were administered to each of 6 rats, while 6 control animals received daily injections of 0.5 ml olive oil. The rats used in this study initially weighed between 110 and 190 grams.

Setting [6] is: read-out: Concentrations Required for 50% Inhibition of Sterol Synthesis.
Where [7] appears, read: read-out: concentration causing 50% inhibition of sterol synthesis.

Like-named read-outs stand apart in the source and are kept apart here.

For the compound `CO[C@H]1CC[C@@]2(C)[C@@H](CC=C3[C@@H]2CC[C@]2(C)[C@@H]([C@H](C)CCCC(C)C)C[C@H](O)[C@@]32C)C1` [3β-methoxy-14α-methyl-5α-cholest-7-en-15α-ol], the IC50 in assay [1] (setting [6]) was found to be 0.3 µM; in assay [2] (setting [6]), 1.9 µM; in assay [3], 3 µM; in assay [4], 1.6 µM.

For `CC(C)CCC[C@@H](C)[C@H]1C[C@@H](O)[C@@]2(C)C3=CC[C@H]4C[C@@H](O)CC[C@]4(C)[C@H]3CC[C@]12C` [14α-Methyl-5α-cholest-7-en-3β,15β-diol], the results for the IC50 in assay [1] (setting [6]), in assay [3] and in assay [4] were 0.5 µM, 1.2 µM and 4.3 µM, respectively.

`CC[C@@]12C(=O)C[C@H]([C@H](C)CCCC(C)C)[C@@]1(C)CC[C@H]1C2=CC[C@H]2C[C@@H](O)CC[C@@]21C` [14α-Ethyl-5α-cholest-7-en-3β-ol-15-one, 14α-ethyl-5α-cholest-7-en-3β-ol-15-one]: the IC50 in assay [1] (setting [6]) came out at 0.3 µM; in assay [2] (setting [6]), 2.1 µM; in assay [3], 1.9 µM; in assay [4], 2.1 µM.

Take `CCO[C@H]1CC[C@@]2(C)[C@@H](CC=C3[C@@H]2CC[C@]2(C)[C@@H]([C@H](C)CCCC(C)C)CC(=O)[C@@]32CC)C1` [3β-ethoxy-14α-ethyl-5α-cholest-7-en-15-one]: the “Serum Cholesterol (Mean ± S.E.M.)” value is 89.1 ± 2.2 mg per 100 ml in assay [5] (day 0); 77.3 ± 2.1 mg per 100 ml in assay [5] (day 6); 80.1 ± 2.3 mg per 100 ml in assay [5] (day 10); 78.5 ± 3.3 mg per 100 ml in assay [5] (day 15); 73.1 ± 2.3 mg per 100 ml in assay [5] (day 21); 66.8 ± 2.6 mg per 100 ml in assay [5] (day 27). For the same compound, the “% Reduction (relative to triolein-treated rats)” value came to 4.8% in assay [5] (5 mg s.c. once a day, day 6); 3.4% in assay [5] (5 mg s.c. once a day, day 10); 3.8% in assay [5] (5 mg s.c. once a day, day 15); 11.5% in assay [5] (5 mg s.c. once a day, day 21); 18.3% in assay [5] (5 mg s.c. once a day, day 27). Besides, the “percentage reduction in serum cholesterol levels, mean value (S.E.M.)” value in assay [5] (5 mg s.c. once a day, day 27 vs. day 0) is 25.0. For the same compound, the IC50 in assay [1] (setting [6]) was more than 22 µM.

Turning to `CC(C)CCC[C@@H](C)[C@H]1C[C@H](O)[C@@]2(C)C3=CC[C@H]4C[C@@H](O)CC[C@]4(C)[C@H]3CC[C@]12C` [14α-Methyl-5α-cholest-7-en-3β,15α-diol], the IC50 in assay [1] (setting [6]) worked out at 0.3 µM; in assay [2] (setting [6]) it was 1.8 µM; in assay [3], 0.3 µM; in assay [4], 2 µM.

In the case of `CC(C)CCC[C@@H](C)[C@H]1CC(=O)[C@@]2(C)C3=CC[C@H]4C[C@@H](O)CC[C@]4(C)[C@H]3CC[C@]12C` [14α-Methyl-5α-cholest-7-en-3β-ol-15-one, 14α-methyl-5α-cholest-7-en-3β-ol-15-one], the IC50 in assay [1] (setting [6]) stood at 0.3 µM; in assay [2] (setting [6]), 4.5 µM; in assay [3], 0.3 µM; in assay [4], 2.8 µM.

Regarding `CC[C@]12C3=CC[C@H]4C[C@@H](O)CC[C@]4(C)[C@H]3CC[C@]1(C)[C@@H]([C@H](C)CCCC(C)C)C[C@@H]2O` [14α-Ethyl-5α-cholest-7-en-3β,15α-diol, 14α-ethyl-5α-cholest-7-en-3β,15α-diol], the values for the IC50 in assay [1] (setting [7]), in assay [2] (setting [6]) and in assay [2] (setting [7]) were 0.05 µM, 0.06 µM and 0.06 µM, respectively.

For the compound `CCO[C@H]1CC[C@@]2(C)[C@@H](CC=C3[C@@H]2CC[C@]2(C)[C@@H]([C@H](C)CCCC(C)C)CC(O)[C@@]32CC)C1` (stereo partly drawn) [3β-Ethoxy-14α-ethyl-5α-cholest-7-en-15-ol], the IC50 is 0.7 µM in assay [1] (setting [6]) and 4.3 µM in assay [2] (setting [6]).

`CC(C)CCC[C@@H](C)[C@H]1C[C@@H](O)[C@@H]2C3=CC[C@H]4C[C@@H](O)CC[C@]4(C)[C@H]3CC[C@]12C` [5α,14β-Cholest-7-en-3β,15β-diol, 5α,14β-cholest-7-en-3β,15β-diol]: the IC50 in assay [1] (setting [6]) was 1 µM; in assay [2] (setting [6]) it was 2.5 µM; in assay [3] it was 4.5 µM; in assay [4], 6 µM.

As for `CC[C@]12C3=CC[C@H]4C[C@@H](O)CC[C@]4(C)[C@H]3CC[C@]1(C)[C@@H]([C@H](C)CCCC(C)C)C[C@H]2O` [14α-Ethyl-5α-cholest-7-en-3β,15β-diol, 14α-ethyl-5α-cholest-7-en-3β,15β-diol], the IC50 was found to be 0.4 µM in assay [1] (setting [6]) and 0.8 µM in assay [2] (setting [6]).

On to `CC(C)CCC[C@@H](C)[C@H]1C[C@@H](O)C2=C3CC[C@H]4C[C@@H](O)CC[C@]4(C)[C@H]3CC[C@@]21C` [5α-Cholest-8(14)-en-3β,15β-diol], for which the IC50 came to 1.8 µM in assay [1] (setting [6]), 10.3 µM in assay [2] (setting [6]), 2.5 µM in assay [3] and 16.1 µM in assay [4].

As for `CC(C)CCC[C@@H](C)[C@H]1C[C@H](O)C2=C3CC[C@H]4C[C@@H](O)CC[C@]4(C)[C@H]3CC[C@@]21C` [5α-Cholest-8(14)-en-3β,15α-diol], the IC50 in assay [1] (setting [6]) worked out at 3.7 µM; in assay [2] (setting [6]), 31 µM.

As to `CC(C)CCC[C@@H](C)[C@H]1C[C@H](O)[C@@H]2C3=CC[C@H]4C[C@@H](O)CC[C@]4(C)[C@H]3CC[C@]12C` [5α,14β-Cholest-7-en-3β,15α-diol, 5α,14β-cholest-7-en-3β,15α-diol], the IC50 in assay [1] (setting [6]) worked out at 3.2 µM; in assay [2] (setting [6]), 7.5 µM; in assay [3], 6.7 µM; in assay [4], 12.5 µM.

For `CO[C@H]1CC[C@@]2(C)[C@@H](CC=C3[C@@H]2CC[C@]2(C)[C@@H]([C@H](C)CCCC(C)C)C[C@@H](O)[C@@]32C)C1` [3β-methoxy-14α-methyl-5α-cholest-7-en-15β-ol], the IC50 was determined as 1.4 µM in assay [1] (setting [6]), 3.5 µM in assay [2] (setting [6]), 3.7 µM in assay [3] and 3.5 µM in assay [4].

On to `CC[C@]12C3=CC[C@H]4C[C@@H](OC(C)=O)CC[C@]4(C)[C@H]3CC[C@]1(C)[C@@H]([C@H](C)CCCC(C)C)C[C@H]2O` [3β-acetoxy-14α-ethyl-5α-cholest-7-en-15β-ol], for which the IC50 in assay [1] (setting [6]) stood at 0.03 µM; in assay [3], 0.13 µM.
